Like-named read-outs stand apart in the source and are kept apart here. Values belong to the compound of their own block, whether it stands above or below them. Non-standard residues stand in square brackets, D forms with d. Residues, ends and D or L forms follow the SMILES beside them. No end group written: not given here. Met(O) = CS(=O)CC[C@H](N)C(=O)O
Tests used:
[1] = tested on: spontaneously hypertensive rats (SHRs); experiment: Antihypertensive effect on SHRs (tail-cuff SBP and DBP); assay type: in vivo, rat; details: positive control, single oral dose 10 mg/kg body weight
Description: Spontaneously hypertensive rats (SHRs) (male, 10-week-old, 250–300 g body weight, specific, pathogen-free) were bought from Vital River Laboratory Animal Co., Ltd. (Beijing, China). Animals used in this study were maintained in accordance with the guidelines of the Institutional Research Council’s Guide for the Care and Use of Laboratory Animals. SHRs were housed under 12 h day/night cycle at 22 ± 2 °C and fed with tap water and a standard diet ad libitum. The SHRs were randomly separated into a positive group, control group, and two experiment groups. There were six SHRs in each group. Before the formal start of the test, SHRs had to adapt to measuring the environment in advance. Once the tail systolic blood pressure (SBP) rates were above 180 mmHg, the gavage administration could start.
Normal saline was the solvent to dissolve peptides and control reagent. Captopril (99% purity, Solarbio Technology Co., Ltd., Beijing, China) was the positive group. The same volume of normal saline was the control group. Tail-cuff method was performed for systolic blood pressure (SBP) and diastolic blood pressure (DBP) measurements with a non-invasive CODA device (Kent Scientific Co., Torrington, CT, USA). The blood pressure was measured in 0, 1, 2, 4, 6, 8 h after gavage administration. Measurements were repeated three times at each time point.

[2] = tested on: ACE; set-up: method as in 6 sources, ref 31 = [31]; doi:10.1007/s00217-017-2886-2; 31. Cao D. Lv X. Xu X. Yu H. Sun X. Xu N. Purification and identification of a novel ACE inhibitory peptide from marine alga Gracilariopsis lemaneiformis protein hydrolysate Eur. Food Res. Technol. 20 ||| ref 32, 33 = [32]; doi:10.1016/j.procbio.2017.08.009; 32. Guo M. Chen X. Wu Y. Zhang L. Huang W. Yuan Y. Fang M. Xie J. Wei D. Angiotensin I-converting enzyme inhibitory peptides from Sipuncula ( Phascolosoma esculenta ): Purification, identification, mo || [33]; doi:10.1080/00021369.1987.10868415; 33. Maruyama S. Mitachi H. Awaya J. Kurono M. Tomizuka N. Suzuki H. Angiotensin I-Converting Enzyme Inhibitory Activity of the C-Terminal Hexapeptide of αs1-Casein Agric. Biol. Chem. Tokyo 1987 51 255 ||| ref 7 = [7]; 7. Fujita H. Yokoyama K. Yoshikawa M. Classification and antihypertensive activity of angiotensin I-converting enzyme inhibitory peptides derived from food proteins J. Food Sci. 2000 65 564 569 ||| ref 43 = [43]; PMID 24866326; doi:10.1021/jf501368a; 43. Duan X. Wu F. Li M. Yang N. Wu C. Jin Y. Yang J. Jin Z. Xu X. Naturally occurring angiotensin I-Converting enzyme inhibitory peptide from a fertilized egg and its inhibitory mechanism J. Agric. Fo ||| ref 44 = [44]; doi:10.1016/j.foodres.2012.11.002; 44. Liu X. Zhang M. Jia A. Zhang Y. Zhu H. Zhang C. Sun Z. Liu C. Purification and characterization of angiotensin I converting enzyme inhibitory peptides from jellyfish Rhopilema esculentum Food Res. ||| ...; details: cited from earlier work; for Inhibition pattern on ACE: peptides isolated from food stuffs, ref 37 (IFL), 38 (AVKVL), 39 (VELWP)
[3] = cited from earlier work
Description: Antihypertensive activity of peptides were further evaluated using spontaneously hypertensive rats (SHRs). […] Overall, drugs can exert better antihypertensive effects than hydrolysates and antihypertensive peptides derived from foods. […] Both FQIN [M(O)] CILR and TGAPCR decreased the SBP of SHRs. FQIN [M(O)] CILR and TGAPCR reduced the SBP of SHRs by 34 mmHg and 28 mmHg to the maximum extent, re ...

[4] = target: T1, ACE (from rabbit lung) (Oryctolagus cuniculus, UniProt P12822); experiment: ACE inhibition activity assay (HHL substrate, hippuric acid by RP-HPLC); assay type: biochemical; details: 0.1 U/mL ACE, 5 mM HHL, sodium borate buffer pH 8.3 with 0.3 M NaCl, 37 °C, 60 min; seven peptide concentrations; triplicate, mean ± SD
T1 construct: ACE (from rabbit lung); purchased Sigma-Aldrich Co. (St. Louis, MO, USA); host or cells: rabbit lung tissue
T1 sequence (P12822 34-1310): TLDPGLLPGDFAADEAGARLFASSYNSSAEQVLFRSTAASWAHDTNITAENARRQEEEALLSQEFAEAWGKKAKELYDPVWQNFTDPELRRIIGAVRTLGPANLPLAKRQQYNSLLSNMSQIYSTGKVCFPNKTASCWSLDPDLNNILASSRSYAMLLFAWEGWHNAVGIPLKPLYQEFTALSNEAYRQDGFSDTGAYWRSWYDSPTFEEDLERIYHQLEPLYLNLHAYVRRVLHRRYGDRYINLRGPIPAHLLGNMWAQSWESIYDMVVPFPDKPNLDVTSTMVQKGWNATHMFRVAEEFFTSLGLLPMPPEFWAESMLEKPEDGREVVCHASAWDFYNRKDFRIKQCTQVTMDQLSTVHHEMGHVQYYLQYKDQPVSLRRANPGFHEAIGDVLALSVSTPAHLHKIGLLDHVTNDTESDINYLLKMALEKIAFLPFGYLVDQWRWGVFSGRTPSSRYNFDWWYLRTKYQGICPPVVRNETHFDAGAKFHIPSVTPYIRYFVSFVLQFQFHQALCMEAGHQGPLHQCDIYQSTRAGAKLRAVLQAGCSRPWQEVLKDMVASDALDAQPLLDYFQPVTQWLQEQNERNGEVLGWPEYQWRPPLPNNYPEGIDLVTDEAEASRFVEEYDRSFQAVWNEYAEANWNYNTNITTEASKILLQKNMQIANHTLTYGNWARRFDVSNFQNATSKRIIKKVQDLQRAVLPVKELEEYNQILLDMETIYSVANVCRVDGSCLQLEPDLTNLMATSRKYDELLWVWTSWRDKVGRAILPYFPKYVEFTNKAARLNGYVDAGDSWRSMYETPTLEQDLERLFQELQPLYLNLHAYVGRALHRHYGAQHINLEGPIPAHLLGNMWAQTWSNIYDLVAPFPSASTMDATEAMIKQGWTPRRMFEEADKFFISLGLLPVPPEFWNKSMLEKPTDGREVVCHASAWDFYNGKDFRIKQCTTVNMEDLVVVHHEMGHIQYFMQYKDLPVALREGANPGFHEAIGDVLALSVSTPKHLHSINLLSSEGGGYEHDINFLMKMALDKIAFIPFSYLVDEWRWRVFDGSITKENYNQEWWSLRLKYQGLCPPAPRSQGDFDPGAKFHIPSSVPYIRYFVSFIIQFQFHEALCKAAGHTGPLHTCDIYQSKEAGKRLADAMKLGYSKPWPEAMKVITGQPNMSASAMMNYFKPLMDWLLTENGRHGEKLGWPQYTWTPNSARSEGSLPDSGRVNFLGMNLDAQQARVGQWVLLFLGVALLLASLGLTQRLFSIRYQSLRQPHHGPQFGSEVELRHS
Description: (§1) ACE (from rabbit lung), hippuryl-histidyl-leucine (HHL), high-performance liquid chromatography (HPLC)-grade acetonitrile (ACN), trifluoroaceticacid (TFA) and porcine pancreatin (8× USP) were purchased from Sigma-Aldrich Co. (St. Louis, MO, USA). Trypsin (EC […], ≥250. N.F.U/mg solid), pepsin (EC 3.4.23.1, ≥250 U/mg solid), and captopril (>99% purity) were obtained from Solarbio (Beijing, China). All other chemical reagents were of analytical grade.
(§2) ACE inhibition activity was assayed according to Cushman and Cheung, with some modification. ACE was dissolved in sodium borate buffer (pH 8.3, containing 0.3 M sodium chloride) to 0.1 U/mL for the assay. Synthetic peptides were dissolved in distilled water to seven concentration levels. Then, 20 μL of a certain concentration of peptide was mixed with 10 μL ACE solution. The mixture was incubated at 37 °C for 5 min, and then 50 μL of 5 mM HHL (sodium borate buffer pH 8.3, containing 0.3 M sodium chloride) was added to the above mixture to start the reaction. […] The absorbance was detected at 228 nm. […] The activity of ACE inhibition was calculated as followed:ACE inhibitory activity (%) = (Acontrol − Ainhibitor)/Acontrol × 100 where Ainhibitor is the relative area of the hippuric acid (HA) peak obtained from the reaction of ACE and HHL with inhibitor. […]

[5] = Observed water solubility of the peptide; assay type: physicochemical; details: when the concentration was lower than 10 mg/mL; solubility gradually decreased above 10 mg/mL
Description: The properties and stabilities of peptides are prerequisites for the preparation of "functional peptides". According to the information in the Innovagen server, FQIN [M(O)] CILR has poor water solubility. […] The hydrophobicity of FQIN [M(O)] CILR is related to the presence of hydrophobic amino acids, such as Phe, Leu, Ile, and Met. The hydrophobicity of FQIN [M(O)] CILR may facilitate the binding of peptides to the hydrophobic active center of ACE, in turn, produce better inhibitory activity.

[6] = target: T1, ACE (from rabbit lung); experiment: Stability of peptides against ACE; assay type: in vitro ADME; details: 0.1 mg/mL peptide with 0.1 U/mL ACE, 37 °C, 24 h; read-out ACE inhibitory activity; mean ± SD, n = 3
Description: as §1
The stability of peptides against ACE was assayed according to Salampessy. J and Fujita. H [48, 49]. 30 μL of peptides (0.1 mg/mL) reacted with 30 μL 0.1 U/mL ACE solution at 37 °C for 24 h. The ACE was then inactivated through boiling the solution for 10 min. Then, 20 μL of peptides were used to detect ACE inhibitory activity in the above method.

[7] = target: T1, ACE (from rabbit lung); experiment: Determination of inhibitory pattern (Lineweaver-Burk plots); assay type: biochemical; details: X-axis intercept of the plot of Lineweaver-Burk slopes against peptide concentration
Description: as §1, §2

[8] = peptides isolated from jellyfish, read-out: IC50 (ACE inhibition)
[9] = reported C-terminal arginine ACE inhibitory peptides, read-out: IC50 (ACE inhibition)
[10] = peptide isolated from dried bonito, before pre-incubation with ACE, read-out: IC50 (ACE inhibition)

Compound: C[C@H](CS)C(=O)N1CCC[C@H]1C(=O)O [captopril]
Antihypertensive effect on SHRs (in words) [1]: maximal antihypertensive effect

Compound: QPGPT
IC50 [2, 8]: 80.7 µM
Reduction of SBP [3]: 13.75 mmHg

Compound: YASGR
IC50 [2, 9]: 184 µM

Compound: VELWP
Inhibition pattern on ACE [2]: noncompetitive inhibition

Compound: AVKVL
Inhibition pattern on ACE [2]: noncompetitive inhibition

Compound: QVEY
IC50 ([2]; peptide from trypsin hydrolyzate of G. lemaneiformis, read-out: IC50 (ACE inhibition)): 474 µM

Compound: LKPNM
IC50 after the pre-incubation with ACE, as fraction of the IC50 before ([2]; hydrolyzed into LKP and NM): 1/3
IC50 [2, 10]: 2.4 µM

IC50 [4]: 9.64 ± 0.36 µM
water solubility found in the authors' study [5]: good water solubility
Ki [7]: 710 ± 40 µM
Compound: CC[C@H](C)[C@H](NC(=O)[C@H](CS)NC(=O)[C@H](CC[S+](C)[O-])NC(=O)[C@H](CC(N)=O)NC(=O)[C@@H](NC(=O)[C@H](CCC(N)=O)NC(=O)[C@@H](N)Cc1ccccc1)[C@@H](C)CC)C(=O)N[C@@H](CC(C)C)C(=O)N[C@@H](CCCNC(=N)N)C(=O)O (stereo partly drawn) [FQIN [M(O)] CILR] (H-FQIN[Met(O)]CILR-OH)
Stability against ACE hydrolysis (ACE inhibitory activity after incubation with ACE) [6]: stable ACE inhibitors but not substrates of ACE

Compound: GDIGY
IC50 [2, 8]: 32.6 µM
Reduction of SBP [3]: 20.67 mmHg

Compound: YIPIQYVLSR
IC50 [2, 9]: 132 µM

IC50 [4]: 23.9 ± 0.82 µM
Ki [7]: 860 ± 60 µM
Compound: TGAPCR [TGAPCR]
Stability against ACE hydrolysis (ACE inhibitory activity after incubation with ACE) [6]: stable ACE inhibitors but not substrates of ACE

Compound: GNGSGYVSR
IC50 [2, 9]: 29 µM

Compound: FFGRCVSP
IC50 [2, 10]: 0.4 µM
IC50 ([2]; peptide isolated from dried bonito, hydrolyzed by ACE to fragments, read-out: IC50 after hydrolysis by ACE): 4.6 µM

Compound: HLFGPPGKKDPV
IC50 ([2]; peptide separated from fertilized eggs, read-out: IC50 (ACE inhibition)): 125 µM
Greatest SBP drop ([3]; oral dose of 10 mg/kg): 30 mmHg
